Results: publication PMC5458078, “Global mapping of CARM1 substrates defines enzyme specificity and substrate recognition” (Nature Communications, 2017)

Each sequence was assayed on CARM1 (assay: 96-spot peptide array in vitro methylation, autoradiography). Conditions: 96-spot array, 3H-SAM, 30 °C.
Assay type: biochemical, human
From the text: Having corroborated the ability of CARM1 to methylate most of the detected substrates, we designed an additional 96-spot peptide array (Fig. 2e and Supplementary Data 3) with two purposes in mind: (1) to examine the significance of surrounding amino acids on CARM1-directed arginine dimethylation, particularly those mutated in human cancers; and (2) to measure PRMT specificity towards respective substrates. The selected sequences encompassed a mixture herein identified and predicted CARM1 substrates (in light blue) and representative cancer-relevant substrates, accompanied by the sequences harbouring mutations detected in human patients[38] (in blue). We also arbitrarily mutated the recognition sequence surrounding R1064 on BAF155 (ref. [20])—the known CARM1 methylation site—to assess the significance of surrounding amino-acid residues to CARM1 activity (four sequence in dark blue). The array also featured 17 known substrates of PRMT1 (in grey), 10 substrates of PRMT5 (in purple) and 4 substrates of PRMT6 (in pink) as positive controls for these enzymes.
The FL and N-terminal domain-deleted version of human CARM1 cDNAs, and other PRMT FL cDNAs were cloned into pFN21K Halo Tag CMV Flexi mammalian expression vector (Promega, Madison, WI) using the unique Sgfl and Pmel site[55]. To express the protein, DNA constructs were transiently transfected into HEK293T CARM1 KO cells in 15 cm dishes using transIT-LT1 reagent (Mirus Bio, Madison, WI) according to the manufacturer's protocol. Proteins were allowed to express for 48 h. Cell pellets were then collected and lysed in lysis buffer (50 mM HEPES, pH 7.5, 150 mM NaCl, 0.005% NP-40, 0.5 mM EDTA, supplemented with 1 × protease inhibitor cocktail before use). The cells were sonicated on ice using a Branson Sonifier 450 with a microtip at 35% amplitude (10 s on, 30 s off, 6 cycles). The crude lysate was cleared by centrifugation (15,000 r.p.m., 4 °C, 20 min). The cleared lysate was then mixed with pre-washed Halo Link resin (60 μl resin for a 15 cm dish) and incubated with rotation at room temperature for 2 h. The resin was then washed twice with lysis buffer, once with lysis buffer supplemented with 1 M urea and twice with lysis buffer. The recombinant proteins were then eluted with cleavage buffer (lysis buffer supplemented with 1 mM DTT and 20 μg ml^−1 TEV protease) with rotation at room temperature for 2 h. The resin was centrifuged at 3,000 r.p.m. for 5 min, and the supernatant containing the cleaved protein was collected and protein concentration was determined using the Bradford assay (Thermo Scientific, Rockford, IL). Protein purity was assessed by running SDS–PAGE and Coomassie Blue staining.
Purified recombinant enzyme and substrates were incubated in methylation buffer (50 mM Tris-HCl, pH 8.0, 100 mM NaCl and 0.5 mM EDTA) for 1–4 h at 30 °C in the presence of 1 μl radioactive S-adenosyl-L-[methyl-^3H] methionine. The reaction was stopped by adding 5 × SDS sample buffer and boiling at 99 °C for 5 min. Proteins were resolved by SDS–PAGE. The gel was stained with Coomassie Brilliant Blue (Coomassie Brilliant Blue R-250 0.05% w/v: methanol 50%: acetic acid 10%: H2O 40%) followed by de-staining with dye-free buffer. Fixed gel was then soaked with amplify (GE Healthcare, Waukesha, WI) with gentle shaking at room temperature for 30 min before drying on a Whatman paper at 80 °C and exposing to an X-ray film in dark at −80 °C. Protein methylation was detected by autoradiography.
For methylation assays using the peptide array, 16 or 20 μg purified recombinant CARM1 or same molar concentration of the other PRMTs (for 96-spot and 192-spot arrays, respectively) was mixed well with 40 μl radioactive S-adenosyl-L-[methyl-^3H] methionine, 80 μl 5 × methylation buffer and ddH2O to achieve a final volume of 200 or 400 μl reaction (for 96-spot and 192-spot arrays, respectively). The Celluspot peptide arrays were customized and produced by Intavis Bioanalytical Instruments, Germany. […]
For PGNILGPRVALTAPN [BAF155 (R1064) P1066A], the “Methylation by CARM1 of mutated peptide vs wild-type sequence” value (“Methylation … vs wild-type sequence” for short) was “nearly abolished methylation by CARM1”.
YGSQTPQRYQMTMQG [ARID1A (R429) P431Q] was tested, and the “Methylation … vs wild-type sequence” value was “significantly reduced methylation by CARM1”.
PGNILAPRVPLTAPN [BAF155 (R1064) G1062A] was tested, and the “Methylation … vs wild-type sequence” value was “nearly abolished methylation by CARM1”.
With VQSLCDTRFHFQQRA [TET2 (R680) G678D] the “Methylation … vs wild-type sequence” value was “significantly reduced methylation by CARM1”.
With PGNILGARVPLTAPN [BAF155 (R1064) P1063A] the “Methylation … vs wild-type sequence” value was “nearly abolished methylation by CARM1”.
In the case of DPYRPVRLQMQKLPT [MED12 (R1862) P1864Q], the “Methylation … vs wild-type sequence” value is reported as “significantly reduced methylation by CARM1”.
With YGSQTPQRCPMTMQG [ARID1A (R429) Y430C] the “Methylation … vs wild-type sequence” value was “significantly reduced methylation by CARM1”.
